According to ChEMBL document CHEMBL1145735, “Synthesis and antitumor activity of novel C-8 ester derivatives of leinamycin” (Bioorg Med Chem Lett, 2003):

Tests used:
[1] = tested on: Mus musculus; assay: In vivo antitumor activity against lymphocytic leukemia P388 in mice expressed as maximal increase in life span at an optimal dose of 8 mg/kg.; assay type: functional
[2] = tested on: HeLa; assay: In vitro antiproliferative activity against HeLa S3 cells.; assay type: functional, cell-based; settings: Homo sapiens
[3] = tested on: Mus musculus; assay: In vivo antitumor activity against murine sarcoma 180 cells at an optimal dose of 4 mg/kg.; assay type: functional
[4] = tested on: Mus musculus; assay: In vivo antitumor activity against murine sarcoma 180 cells at an optimal dose of 16 mg/kg.; assay type: functional
[5] = tested on: Mus musculus; assay: In vivo antitumor activity against murine sarcoma 180 cells at an optimal dose of 8 mg/kg.; assay type: functional
[6] = tested on: Mus musculus; assay: In vivo antitumor activity against lymphocytic leukemia P388 in mice expressed as maximal increase in life span at an optimal dose of 4 mg/kg.; assay type: functional

| Compound | ILS at 8 mg/kg [1] | IC50 [2] | T/C [3] | T/C [4] | T/C [5] | ILS at 4 mg/kg [6] |
| --- | --- | --- | --- | --- | --- | --- |
| C/C1=C\[C@@H](OC(=O)CNC(=O)CNC(=O)OCc2ccccc2)C(=O)/C=C/C=C/c2csc(n2)[C@@H](C)N2C(=O)C[C@@]([C@@](C)(O)C(=O)SCc3oc(=O)oc3C)(CC1)[S+]2[O-] (stereo not given in full) | 64% | 15 nM | 0.61 |  |  |  |
| C/C1=C\[C@@H](OC(=O)CNC(=O)OCc2ccccc2)C(=O)/C=C/C=C/c2csc(n2)[C@@H](C)N2C(=O)C[C@@]([C@@](C)(O)C(=O)SCc3oc(=O)oc3C)(CC1)[S+]2[O-] (stereo not given in full) | 98% | 4 nM |  | 0.36 |  |  |
| COCCOCCOCCOCCOCCOCC(=O)O[C@@H]1/C=C(\C)CC[C@]2([C@@](C)(O)C(=O)SCc3oc(=O)oc3C)CC(=O)N([C@H](C)c3nc(cs3)/C=C/C=C/C1=O)[S+]2[O-] (stereo not given in full) |  | 43 nM |  |  | 0.58 |  |
| COCCOCCOCCOCC(=O)O[C@@H]1/C=C(\C)CC[C@]2(CC(=O)N[C@@H](C)c3nc(cs3)/C=C\C=C\C1=O)[S+]([O-])SC(=O)[C@]2(C)O (stereo not given in full) |  | 610 nM | 0.82 |  |  |  |
| C/C1=C\[C@@H](OC(=O)COCCOCCO)C(=O)/C=C/C=C\c2csc(n2)[C@H](C)NC(=O)C[C@@]2(CC1)[S+]([O-])SC(=O)[C@]2(C)O (stereo not given in full) |  | 25 nM | 0.36 |  |  |  |
| C/C1=C\[C@@H](OC(=O)CNC(=O)CNC(=O)c2ccccc2)C(=O)/C=C/C=C\c2csc(n2)[C@H](C)NC(=O)C[C@@]2(CC1)[S+]([O-])SC(=O)[C@]2(C)O (stereo not given in full) | 78% | 8.7 nM |  |  | 0.42 |  |
| COCCOCCOCCOCCOCC(=O)O[C@@H]1/C=C(\C)CC[C@]2(CC(=O)N[C@@H](C)c3nc(cs3)/C=C\C=C\C1=O)[S+]([O-])SC(=O)[C@]2(C)O (stereo not given in full) |  | 240 nM |  |  | 0.51 |  |
| COCCOCC(=O)OCCOCCOCC(=O)O[C@@H]1/C=C(\C)CC[C@]2(CC(=O)N[C@@H](C)c3nc(cs3)/C=C\C=C\C1=O)[S+]([O-])SC(=O)[C@]2(C)O (stereo not given in full) |  |  |  |  | 0.12 |  |
| COCCOCCOCC(=O)O[C@@H]1/C=C(\C)CC[C@]2(CC(=O)N[C@@H](C)c3nc(cs3)/C=C\C=C\C1=O)[S+]([O-])SC(=O)[C@]2(C)O (stereo not given in full) |  | 66 nM | 0.3 |  |  |  |
| C/C1=C\[C@@H](OC(=O)CNC(=O)CN(C)C(=O)OCc2ccccc2)C(=O)/C=C/C=C\c2csc(n2)[C@H](C)NC(=O)C[C@@]2(CC1)[S+]([O-])SC(=O)[C@]2(C)O (stereo not given in full) |  | 67 nM |  |  | 0.61 | 70% |
| C/C1=C\[C@@H](OC(=O)COCCOCCOCCOCCO)C(=O)/C=C/C=C\c2csc(n2)[C@H](C)NC(=O)C[C@@]2(CC1)[S+]([O-])SC(=O)[C@]2(C)O (stereo not given in full) |  |  |  |  | 0.18 |  |
| C/C1=C\[C@@H](OC(=O)[C@@H](C)NC(=O)OCc2ccccc2)C(=O)/C=C/C=C\c2csc(n2)[C@H](C)NC(=O)C[C@@]2(CC1)[S+]([O-])SC(=O)[C@]2(C)O (stereo not given in full) |  | 45 nM | 0.56 |  |  | 52% |
| C/C1=C\[C@@H](OC(=O)CNC(=O)[C@H](NC(=O)OCc2ccccc2)C(C)C)C(=O)/C=C/C=C\c2csc(n2)[C@H](C)NC(=O)C[C@@]2(CC1)[S+]([O-])SC(=O)[C@]2(C)O (stereo not given in full) | 67% | 16 nM |  |  | 0.56 |  |
| C/C1=C\[C@@H](OC(=O)CCNC(=O)OCc2ccccc2)C(=O)/C=C/C=C\c2csc(n2)[C@H](C)NC(=O)C[C@@]2(CC1)[S+]([O-])SC(=O)[C@]2(C)O (stereo not given in full) |  | 40 nM | 0.79 |  |  | 53% |
| C/C1=C\[C@@H](OC(=O)CNC(=O)CCNC(=O)OC(C)(C)C)C(=O)/C=C/C=C\c2csc(n2)[C@H](C)NC(=O)C[C@@]2(CC1)[S+]([O-])SC(=O)[C@]2(C)O (stereo not given in full) | 67% | 170 nM |  |  | 0.45 |  |
| C/C1=C\[C@@H](OC(=O)CN(C)C(=O)OCc2ccccc2)C(=O)/C=C/C=C\c2csc(n2)[C@H](C)NC(=O)C[C@@]2(CC1)[S+]([O-])SC(=O)[C@]2(C)O (stereo not given in full) |  | 52 nM |  |  | 0.74 | 48% |
| COCCOCCOCCOCCOCCOCCOCC(=O)O[C@@H]1/C=C(\C)CC[C@]2(CC(=O)N[C@@H](C)c3nc(cs3)/C=C\C=C\C1=O)[S+]([O-])SC(=O)[C@]2(C)O (stereo not given in full) |  | 210 nM |  |  |  |  |
